The record followed here is US9586905B2, “Benzoazepine derivative and medical use thereof” (SANWA KAGAKU KENKYUSHO CO., LTD., priority 2012, dated 2017).

For series [1], the target named is T1, human V2 receptor (Homo sapiens, UniProt P30518).
T1 construct: A DNA fragment containing a human V2 receptor code region; expressed in transfected cells
The series can be described thus: cAMP production test in V2 receptor expression cell. The class given is cell-based. The following applies: for EC50: human V2 receptor expression cell, 30 minutes at room temperature, HTRF cAMP kit; for Emax: maximum reaction by 8-AVP assumed to be 100%. As to the method: Pharmacological Test (1) Preparation of Human V2 Receptor Expression Cell
A DNA fragment containing a human V2 receptor code region was inserted into an expression vector of a vertebrate cell. The expression vector was genetically introduced into an animal cell to have the human V2 receptor express in the surface of the cell. Since the expression vector could express a neo gene which functions as a G418 resistance marker, it was cultured in a G418-containing medium, thereby selectively obtaining a human V2 receptor stable expression cell.
(2) cAMP Production Test in V2 Receptor Expression Cell
The human V2 receptor expression cell, which was prepared in the above described method, was recovered and resuspended into an incubation buffer (F-12 medium, 20 mM HEPES), and 5 μl of the cell was then divided into a 384-well plate with a density of 15,000 cells/well. 5 μl of a compound solution or an 8-AVP ((Arg^8)-vasopressin) solution, which was diluted with an assay buffer (F-12 medium, 20 mM HEPES, 1 mM IBMX), (total 10 μl/well) was added to each well (final concentration: 15,000 cells/well, 500 μM IBMX, 1% dimethyl sulfoxide). After incubation at room temperature for 30 minutes, a cAMP production amount was measured using a commercially available HTRF cAMP kit (Cisbio Inc.) according to the described protocol. Excel Fit was used in order to find EC50 and Emax values of the test compound.

Series [2] in a line: Rat PK test. The series is classed as in vivo. The following applies: iv, male Sprague-Dawley rat, caudal vein administration, 0.5 mg/kg, plasma; for Vd: CLp multiplied by MRT, read-out: Vdss; for clearance: administration amount divided by AUC0-∞, read-out: CLp (converted). The procedure: A male Sprague-Dawely (Crj: CD(SD)IGS: CHARLES RIVER LABORATORIES JAPAN, INC.) rat was used between 7 to 8 weeks of age as an experimental animal. A rat fasted for one night was used. A test compound was dissolved into DMSO, thereto were added PEG and physical saline to adjust a concentration to be 0.5 mg/mL (20/20/60, v/v/v), and the solution was administered to the caudal vein in a use amount of 0.5 mg/kg. A blood sample was taken with a syringe treated with heparin from the jugular vein with time from 6 to 8 hours after administration and the taken blood was centrifuged to obtain plasma. A plasma drug concentration was measured using LC/MS/MS. For the sample for the LC/MS/MS measurement, a supernatant obtained by adding an internal standard substance and acetonitrile to the plasma and then deproteinization was used. A PK parameter was analyzed by a non-compartment model. A clearance (CLp) was calculated by dividing an administration amount by AUC0-∞. A distribution volume (Vdss) was calculated by multiplying CLp by a mean retention time (MRT).

Series [3] has as its target T2, CYP3A4 (Homo sapiens, UniProt P08684).
T2 construct: human liver microsome with a protein concentration of 0.1 mg protein/mL; from tissue; host or cells: human liver microsomes
Put plainly: Test of inhibition of cytochrome P450 (3A4) enzyme. The conditions noted are these: human liver microsome, midazolam 2.5 μM as substrate, test compound 0.21 to 50 μM, 37° C. 10 minutes. The series is classed as in vitro ADME. As to the method: (4) Test of Inhibition of Cytochrome P450 (3A4) Enzyme
(§1) Using a 96 well plate, midazolam (2.5 μM) as a substrate, a test compound (0.21 to 50 μM), human liver microsome with a protein concentration of 0.1 mg protein/mL were added to a 0.1 M phosphoric acid buffer solution (pH=7.4), which contains 1.55 mM NADP^+, 3.3 mM glucose-6-phosphate, 3.3 mM MgCl2 and 0.4 Units/ml of glucose-6-phosphate dehydrogenase to form a reaction solution having a total amount of 500 μl. The reaction solution was incubated at 37° C. for 10 minutes and 4-hold amount of cold acetonitrile was added thereto to terminate the reaction. Then, the reaction solution was centrifuged (5000 g×10 minutes×4° C.), and the supernatant was collected to measure a production amount of a metabolized product by LC/MS/MS.

Series [4] addresses T3, CYP2C9 (Homo sapiens, UniProt P11712).
T3 construct: human liver microsome with a protein concentration of 0.1 mg protein/mL; from tissue; host or cells: human liver microsomes
The series can be described thus: Test of inhibition of cytochrome P450 (2C9) enzyme. The series is classed as in vitro ADME. The conditions noted are these: human liver microsome, sulfaphenazole 10 μM, test compound 0.21 to 50 μM, 37° C. 10 minutes. The procedure:
(5) Test of Inhibition of Cytochrome P450 (2C9) Enzyme
as §1, with “sulfaphenazole (10” for “midazolam (2.5”, “[…].” for “500 μl.”

T2 sequence (P08684 whole entry): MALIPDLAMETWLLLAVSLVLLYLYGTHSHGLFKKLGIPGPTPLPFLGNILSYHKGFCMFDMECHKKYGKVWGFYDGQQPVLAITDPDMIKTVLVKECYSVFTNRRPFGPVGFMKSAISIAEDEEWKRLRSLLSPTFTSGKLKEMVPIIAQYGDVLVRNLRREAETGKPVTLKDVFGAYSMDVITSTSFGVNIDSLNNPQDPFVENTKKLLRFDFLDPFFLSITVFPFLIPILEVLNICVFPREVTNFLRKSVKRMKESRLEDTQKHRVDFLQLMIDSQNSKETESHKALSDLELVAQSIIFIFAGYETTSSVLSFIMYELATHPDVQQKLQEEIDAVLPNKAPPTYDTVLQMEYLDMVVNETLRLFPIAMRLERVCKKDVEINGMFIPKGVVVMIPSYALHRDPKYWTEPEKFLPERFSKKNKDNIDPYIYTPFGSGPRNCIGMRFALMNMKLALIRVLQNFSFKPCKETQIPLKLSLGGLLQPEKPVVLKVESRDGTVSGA
T3 sequence (P11712 whole entry): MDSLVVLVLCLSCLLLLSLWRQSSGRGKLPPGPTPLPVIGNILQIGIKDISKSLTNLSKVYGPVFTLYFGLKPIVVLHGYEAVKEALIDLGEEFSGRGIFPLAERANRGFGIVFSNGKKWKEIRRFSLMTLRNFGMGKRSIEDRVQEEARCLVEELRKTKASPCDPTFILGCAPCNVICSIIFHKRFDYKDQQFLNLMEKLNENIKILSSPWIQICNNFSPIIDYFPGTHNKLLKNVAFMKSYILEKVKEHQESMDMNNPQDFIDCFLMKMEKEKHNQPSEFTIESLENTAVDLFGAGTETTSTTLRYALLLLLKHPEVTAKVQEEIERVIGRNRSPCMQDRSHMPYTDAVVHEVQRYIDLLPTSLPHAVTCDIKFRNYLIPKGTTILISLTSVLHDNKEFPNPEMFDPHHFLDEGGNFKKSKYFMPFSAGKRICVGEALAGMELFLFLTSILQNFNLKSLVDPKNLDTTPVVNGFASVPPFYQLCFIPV
T1 sequence (P30518 whole entry, the tested form may be a part): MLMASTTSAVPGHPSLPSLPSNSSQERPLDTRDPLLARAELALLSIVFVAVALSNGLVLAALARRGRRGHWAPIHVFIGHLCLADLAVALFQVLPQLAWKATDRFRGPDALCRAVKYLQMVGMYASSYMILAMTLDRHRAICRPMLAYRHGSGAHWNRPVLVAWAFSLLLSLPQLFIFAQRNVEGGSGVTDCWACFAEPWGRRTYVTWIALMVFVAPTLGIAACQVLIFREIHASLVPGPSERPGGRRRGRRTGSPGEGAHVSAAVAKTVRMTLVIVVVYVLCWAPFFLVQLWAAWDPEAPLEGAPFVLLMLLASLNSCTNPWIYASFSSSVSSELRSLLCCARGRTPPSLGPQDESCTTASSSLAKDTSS

Turning to `Cc1ccn(-c2ccc(C(=O)N3CCC(C)(C(=O)NC(C)CO)Cc4ccccc43)c(Cl)c2)n1` (single isomer, unassigned) [Example 72], in series [1], a half-maximal effect (EC50) was put at 2.1 nM and the Emax was determined as 101%. Besides, in series [2], the AUC was found to be 430 ng·h/mL, the Vd is 0.96 L/kg and the clearance was 19.3 mL/min/kg. The same compound had an IC50 in series [3] above 50000 nM. In addition, the IC50 in series [4] came to 46800 nM.
In the case of `Cc1ccn(-c2ccc(C(=O)N3CCC(C)(C(=O)NC(C)CO)Cc4ccccc43)c(C(F)(F)F)c2)n1` (single isomer, unassigned) [Example 89], in series [1], the response was half-maximal at 1.4 nM (EC50) and the Emax turned out to be 102%. Further, in series [2], the AUC was determined as 371 ng·h/mL, the Vd stood at 1.23 L/kg and the clearance was 22.5 mL/min/kg. The compound also had an IC50 in series [3] above 50000 nM. In addition, the IC50 in series [4] is 40200 nM.
In series [1], `CC(NC(=O)C1(C)CCN(C(=O)c2ccc(N3CCCC3)cc2C(F)(F)F)c2ccccc2C1)C(N)=O` (single isomer, unassigned) [Example 90] displayed an EC50 of 0.39 nM and an Emax of 101%. Also, in series [2], the AUC was determined as 613 ng·h/mL, the Vd stood at 1.08 L/kg and the clearance is 13.6 mL/min/kg.
`C[C@@H]1CN(C(=O)c2ccc(-n3cccn3)cc2Cl)c2ccccc2CN1C(=O)NCCO` [comparative compound 1, N-(2-hydroxyethyl)-(R)-1-(2-chloro-4-pyrazol-1-ylbenzoyl)-3-methyl-1,2,3,5-tetrahydro-benzo[e]-1,4-diazepine-4-carboxamide, reference compound]: in series [2], the AUC amounted to 176 ng·h/mL, the Vd was found to be 4.72 L/kg and the clearance is 47.8 mL/min/kg.
Regarding `CC(C)NC(=O)C[C@H]1CCCN(C(=O)c2ccc(N3CCCC3)cc2Cl)c2ccccc21` [comparative compound 2, 2-[(5R)-1-(2-chloro-4-pyrrolidine-1-ylbenzoyl)-2,3,4,5-tetrahydrobenzoazepine-5-yl]-N-isopropylacetoamide, reference compound], the IC50 was found to be 400 nM in series [3] and 200 nM in series [4].
